Source: paper PMC10012588, “Engineering Streptomyces albulus to enhance ε-poly-L-lysine production by introducing a polyphosphate kinase-mediated ATP regeneration system” (Microbial Cell Factories, 2023)

Assays:
Assay type in all cases: biochemical
[1] = molecular target: T1, PPK1 (Streptomyces noursei, UniProt A0A2N8P4S7); assay: change of ATP concentration, reverse reaction; conditions: 0-10 uM ATP, 5 uM ADP, 5 uM polyP6, 20 mM MgSO4, 50 mM Tris-HCl pH 8.0, 30 °C, 2 h
T1 construct: gene ppk; gene amplified from the WG608 genome

[2] = molecular target: T1, PPK1; assay: ATP formation from ADP and polyPn; conditions: 5 uM ADP, 5 uM polyP (polyP6 best), 20 mM MgSO4, 50 mM Tris-HCl pH 8.0, 30 °C, 2 h
[3] = molecular target: PPK2B^cg (Corynebacterium glutamicum, UniProt Q8NM65); assay: ATP formation from ADP and polyPn; conditions: 5 uM ADP, 5 uM polyP (polyP6 best), 20 mM MgSO4, 50 mM Tris-HCl pH 8.0, 30 °C, 2 h
[4] = molecular target: T2, PPK2C^pa (Pseudomonas aeruginosa, UniProt Q9HYF1); assay: ATP formation from ADP and polyPn; conditions: 5 uM ADP, 5 uM polyP (polyP6 best), 20 mM MgSO4, 50 mM Tris-HCl pH 8.0, 30 °C, 2 h
T2 construct: gene PA3455
T2 sequence (Q9HYF1 1-496): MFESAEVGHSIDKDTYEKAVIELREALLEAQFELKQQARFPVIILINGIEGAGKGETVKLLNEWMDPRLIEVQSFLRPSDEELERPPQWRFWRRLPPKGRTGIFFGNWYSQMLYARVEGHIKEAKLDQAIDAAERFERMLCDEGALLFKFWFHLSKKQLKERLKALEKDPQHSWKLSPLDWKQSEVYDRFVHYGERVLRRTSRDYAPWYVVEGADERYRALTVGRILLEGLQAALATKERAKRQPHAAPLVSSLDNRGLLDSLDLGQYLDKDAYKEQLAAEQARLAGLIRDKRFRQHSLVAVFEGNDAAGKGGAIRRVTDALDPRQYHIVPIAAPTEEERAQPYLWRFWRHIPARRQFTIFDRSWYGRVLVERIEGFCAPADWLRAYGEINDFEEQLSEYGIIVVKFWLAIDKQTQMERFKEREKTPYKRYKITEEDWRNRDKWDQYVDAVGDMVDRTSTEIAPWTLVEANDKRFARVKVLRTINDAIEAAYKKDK

| SMILES | change of ATP concentration, reverse reaction [1] | ATP formation from ADP and polyPn [2] | ATP formation from ADP and polyPn [3] | ATP formation from ADP and polyPn [4] |
| --- | --- | --- | --- | --- |
| Nc1ncnc2c1ncn2[C@@H]1O[C@H](COP(=O)(O)OP(=O)(O)OP(=O)(O)O)[C@@H](O)[C@H]1O [ATP] | PPK1 catalyzes polyP6 polymerization and ATP is degraded into ADP | – | – | – |
| Nc1ncnc2c1ncn2[C@@H]1O[C@H](COP(=O)(O)OP(=O)(O)O)[C@@H](O)[C@H]1O [ADP] | – | The activities of the three PPKs were compared in vitro using ADP, and different polyPs | PPK2B^cg exhibited the highest ATP production ability | The activities of the three PPKs were compared in vitro using ADP, and different polyPs |
